Test results taken from ChEMBL document CHEMBL1138480, “Discovery of highly potent and selective biphenylacylsulfonamide-based beta3-adrenergic receptor agonists and evaluation of physical properties as potential overactive bladder therapies: part 5” (J Med Chem, 2009).

Key:
[1] = Inhibition of KCl-induced tonic contraction in Beagle dog detrusor muscle strips preincubated for 15 mins before KCl challenge; assay type: functional; details: Canis lupus familiaris, read-out: EC50
[2] = Protein binding in Beagle dog serum; assay type: ADME, cell-free, Canis lupus familiaris; details: read-out: PPB (converted)
[3] = Ratio of EC50 for inhibition of KCl-induced tonic contraction in anesthetized Beagle dog detrusor muscle strip to EC50 for dog recombinant beta3 adrenergic receptor expressed in CHO cells; set-up: species or system Canis lupus familiaris
[4] = target: Beta-3 adrenergic receptor (Homo sapiens, UniProt P13945); experiment: Agonist activity at human recombinant beta3 adrenergic receptor expressed in CHO cells assessed as cAMP accumulation by enzyme immunoassay; assay type: functional, cell-based; details: read-out: EC50
Chain of Beta-3 adrenergic receptor (Homo sapiens, UniProt P13945) (P13945 whole entry): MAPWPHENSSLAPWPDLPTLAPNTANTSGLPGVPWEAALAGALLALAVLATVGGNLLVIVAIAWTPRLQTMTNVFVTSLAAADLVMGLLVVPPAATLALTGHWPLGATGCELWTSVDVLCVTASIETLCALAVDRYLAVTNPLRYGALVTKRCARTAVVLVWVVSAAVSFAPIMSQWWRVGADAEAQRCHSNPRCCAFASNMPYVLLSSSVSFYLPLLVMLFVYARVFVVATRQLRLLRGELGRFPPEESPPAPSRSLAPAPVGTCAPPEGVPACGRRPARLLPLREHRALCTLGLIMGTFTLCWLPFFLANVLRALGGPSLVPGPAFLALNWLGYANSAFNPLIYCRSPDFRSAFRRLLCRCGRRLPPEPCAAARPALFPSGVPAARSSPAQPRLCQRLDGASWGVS

[5] = Cmax in Beagle dog at 0.10 mg/kg, po by cassette assay; assay type: ADME, organism-based, Canis lupus familiaris; set-up: dose 0.1 mg/kg, route oral; details: in vivo, 0.1 mg/kg
[6] = AUC (0 to 24 hrs) in Beagle dog at 0.10 mg/kg, po by cassette assay; assay type: ADME, organism-based, Canis lupus familiaris; set-up: time < 24 hr, dose 0.1 mg/kg, route oral; details: plasma, 0.1 mg/kg
[7] = Terminal half life in Beagle dog plasma at 0.10 mg/kg, iv by cassette assay; assay type: ADME, organism-based, Canis lupus familiaris; set-up: dose 0.1 mg/kg, route intravenous; details: 0.1 mg/kg, read-out: beta t1/2 (converted)
[8] = Total clearance in Beagle dog at 0.10 mg/kg, iv by cassette assay; assay type: ADME, organism-based, Canis lupus familiaris; set-up: dose 0.1 mg/kg, route intravenous; details: in vivo, 0.1 mg/kg
[9] = Bioavailability in Beagle dog at 0.10 mg/kg, po and iv by cassette assay; assay type: ADME, organism-based, Canis lupus familiaris; details: in vivo, 0.1 mg/kg
[10] = Metabolic stability in rat liver microsomes assessed as intrinsic clearance after 120 mins in presence of NADPH; assay type: ADME, Microsome
[11] = Metabolic stability in monkey liver microsomes assessed as intrinsic clearance after 120 mins in presence of NADPH; assay type: ADME, Macaca mulatta, Microsome; details: rhesus monkey
[12] = Metabolic stability in human liver microsomes assessed as intrinsic clearance after 120 mins in presence of NADPH; assay type: ADME, Microsome
[13] = Cmax in rat at 0.32 mg/kg, po by cassette assay; assay type: ADME, organism-based; set-up: dose 0.32 mg/kg, route oral; details: in vivo
[14] = AUC (0 to 24 hrs) in rat at 0.32 mg/kg, po by cassette assay; assay type: ADME, organism-based; set-up: time < 24 hr, dose 0.32 mg/kg, route oral; details: plasma
[15] = Terminal half life in rat plasma at 0.32 mg/kg, iv by cassette assay; assay type: ADME, organism-based; set-up: dose 0.32 mg/kg, route intravenous; details: read-out: beta t1/2 (converted)
[16] = Total clearance in rat at 0.32 mg/kg, iv by cassette assay; assay type: ADME, organism-based; set-up: dose 0.32 mg/kg, route intravenous; details: in vivo
[17] = Bioavailability in rat at 0.32 mg/kg, po and iv by cassette assay; assay type: ADME, organism-based; details: in vivo
[18] = Cmax in monkey at 0.32 mg/kg, po by cassette assay; assay type: ADME, organism-based, Macaca mulatta; set-up: dose 0.32 mg/kg, route oral; details: rhesus monkey, in vivo
[19] = AUC (0 to 24 hrs) in monkey at 0.32 mg/kg, po by cassette assay; assay type: ADME, organism-based, Macaca mulatta; set-up: time < 24 hr, dose 0.32 mg/kg, route oral; details: rhesus monkey, plasma
[20] = Terminal half life in monkey plasma at 0.32 mg/kg, iv by cassette assay; assay type: ADME, organism-based, Macaca mulatta; set-up: dose 0.32 mg/kg, route intravenous; details: rhesus monkey, read-out: beta t1/2 (converted)
[21] = Total clearance in monkey at 0.32 mg/kg, iv by cassette assay; assay type: ADME, organism-based, Macaca mulatta; set-up: dose 0.32 mg/kg, route intravenous; details: rhesus monkey, in vivo
[22] = Bioavailability in monkey at 0.32 mg/kg, po and iv by cassette assay; assay type: ADME, organism-based, Macaca mulatta; details: rhesus monkey, in vivo
[23] = target: Beta-3 adrenergic receptor (Canis lupus familiaris, UniProt O02662); experiment: Agonist activity at dog recombinant beta3 adrenergic receptor expressed in CHO cells assessed as cAMP accumulation by enzyme immunoassay; assay type: functional, cell-based; details: read-out: EC50
Chain of Beta-3 adrenergic receptor (Canis lupus familiaris, UniProt O02662) (O02662 whole entry): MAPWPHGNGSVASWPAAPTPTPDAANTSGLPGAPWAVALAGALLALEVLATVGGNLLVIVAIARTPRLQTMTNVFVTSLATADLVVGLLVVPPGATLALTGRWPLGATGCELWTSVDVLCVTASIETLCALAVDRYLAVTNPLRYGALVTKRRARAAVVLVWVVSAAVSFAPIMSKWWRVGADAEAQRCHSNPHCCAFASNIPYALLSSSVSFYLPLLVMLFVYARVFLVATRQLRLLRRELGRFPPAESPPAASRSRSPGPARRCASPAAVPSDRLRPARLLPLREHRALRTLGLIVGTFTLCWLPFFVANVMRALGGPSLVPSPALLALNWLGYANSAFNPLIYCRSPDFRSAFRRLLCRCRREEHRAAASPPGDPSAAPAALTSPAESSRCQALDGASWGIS

Canis familiaris [24] = experiment: Inhibition of carbachol-induced increase in intravesical pressure in Beagle dog OAB model at 10 ug/kg, iv for 30 mins measured for 180 mins; assay type: functional; details: Canis lupus familiaris
Canis familiaris [25] = experiment: Inhibition of carbachol-induced increase in intravesical pressure in intraduodenally dosed Beagle dog OAB model for 30 mins measured for 180 mins; assay type: functional, organism-based; details: Canis lupus familiaris
[26] = target: Beta-1 adrenergic receptor (Homo sapiens, UniProt P08588)
Chain of Beta-1 adrenergic receptor (P08588 whole entry): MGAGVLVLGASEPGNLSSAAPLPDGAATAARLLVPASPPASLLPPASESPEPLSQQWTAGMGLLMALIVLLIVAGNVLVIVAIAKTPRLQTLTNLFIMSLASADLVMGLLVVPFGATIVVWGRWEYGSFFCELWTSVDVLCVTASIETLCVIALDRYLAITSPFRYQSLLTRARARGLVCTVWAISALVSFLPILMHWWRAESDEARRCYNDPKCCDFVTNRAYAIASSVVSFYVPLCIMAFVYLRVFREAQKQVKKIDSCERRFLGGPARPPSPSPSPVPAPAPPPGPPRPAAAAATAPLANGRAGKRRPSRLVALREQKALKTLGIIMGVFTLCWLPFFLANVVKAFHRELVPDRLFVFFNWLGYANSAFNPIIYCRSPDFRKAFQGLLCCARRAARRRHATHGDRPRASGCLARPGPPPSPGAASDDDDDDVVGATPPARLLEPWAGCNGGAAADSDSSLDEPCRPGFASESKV
Description: Agonist activity at human recombinant beta-1 adrenergic receptor expressed in CHO cells assessed as cAMP accumulation by enzyme immunoassay

[27] = target: Beta-2 adrenergic receptor (Homo sapiens, UniProt P07550)
Chain of Beta-2 adrenergic receptor (P07550 whole entry): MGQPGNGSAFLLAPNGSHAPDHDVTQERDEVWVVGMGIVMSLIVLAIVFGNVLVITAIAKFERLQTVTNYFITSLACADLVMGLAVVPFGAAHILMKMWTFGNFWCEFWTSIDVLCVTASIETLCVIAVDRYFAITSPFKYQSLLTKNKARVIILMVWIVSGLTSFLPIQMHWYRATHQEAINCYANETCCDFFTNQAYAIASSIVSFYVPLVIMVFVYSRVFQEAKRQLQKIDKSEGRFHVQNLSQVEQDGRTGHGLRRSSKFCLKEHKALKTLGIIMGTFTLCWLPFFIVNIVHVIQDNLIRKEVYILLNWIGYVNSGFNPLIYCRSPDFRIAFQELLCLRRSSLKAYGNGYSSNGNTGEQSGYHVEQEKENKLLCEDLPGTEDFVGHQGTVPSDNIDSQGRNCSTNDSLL
Description: Agonist activity at human recombinant beta2 adrenergic receptor expressed in CHO cells assessed as cAMP accumulation by enzyme immunoassay

[28] = Cmax in Beagle dog at 0.10 mg/kg, po; assay type: ADME, organism-based, Canis lupus familiaris; set-up: dose 0.1 mg/kg, route oral; details: in vivo, 0.1 mg/kg
[29] = AUC (0 to 24 hrs) in Beagle dog at 0.10 mg/kg, po; assay type: ADME, organism-based, Canis lupus familiaris; set-up: time < 24 hr, dose 0.1 mg/kg, route oral; details: plasma, 0.1 mg/kg
[30] = Terminal half life in Beagle dog at 0.10 mg/kg, po; assay type: ADME, organism-based, Canis lupus familiaris; set-up: dose 0.1 mg/kg, route oral; details: in vivo, 0.1 mg/kg, read-out: beta t1/2 (converted)
[31] = Bioavailability in Beagle dog at 0.10 mg/kg, po and iv; assay type: ADME, organism-based, Canis lupus familiaris; details: in vivo, 0.1 mg/kg
[32] = Total clearance in Beagle dog at 0.10 mg/kg, iv; details: in vivo, 0.1 mg/kg
[33] = Metabolic stability in dog liver microsomes assessed as intrinsic clearance after 120 mins in presence of NADPH; assay type: ADME, Canis lupus familiaris, Microsome

EC50 [1] | fraction unbound [2] | EC50 [4] | Cmax [5] | AUC(0-t) at 24 h [6] | half-life [7] | clearance [8] | bioavailability [9] | CLint scaled [10] | Cmax [13] | AUC(0-t) at 24 h [14] | half-life [15] | clearance [16] | bioavailability [17] | Cmax [18] | AUC(0-t) at 24 h [19] | half-life [20] | clearance [21] | bioavailability [22] | EC50 [23] | SMILES | further results
62 nM | 0.17 | 0.13 nM | 34.5 ng/mL | 385 ng·h/mL | 5.5 h | 3.2 mL/min/kg | 81% | 46.9 mL/min/kg | 17 ng/mL | 72.2 ng·h/mL | 3 h | 17.1 mL/min/kg | 25% | 35.1 ng/mL | 272 ng·h/mL | 4.7 h | 7.5 mL/min/kg | 38% | 1.4 nM | CS(=O)(=O)NC(=O)c1ccc(-c2ccc(CCNC[C@H](O)c3cccnc3)cc2)cc1OC1CCCCC1.Cl.Cl | Ratio EC50 [3]: >50; CLint scaled [11]: 3.4 mL/min/kg; CLint scaled [12]: 3.5 mL/min/kg; inhibition in vivo at 0.01 mg/kg (Canis familiaris [24]): > 70%; EC50 (Canis familiaris [25]): 26.5 nM; ED50 (Canis familiaris [25]): 0.0162 mg/kg; EC50 [26]: 800 nM; EC50 [27]: > 10000 nM
11.4 nM | 0.1 | 0.32 nM | 39.8 ng/mL | 441 ng·h/mL | 4.3 h | 2.9 mL/min/kg | 75% | 84.3 mL/min/kg | 9.9 ng/mL | 108 ng·h/mL | 2.3 h | 19.6 mL/min/kg | 41% | 15.7 ng/mL | 143 ng·h/mL | 5.8 h | 9.2 mL/min/kg | 24% | 0.68 nM | CC(C)Sc1cc(-c2ccc(CCNC[C@H](O)c3ccccc3)cc2)ccc1C(=O)NS(C)(=O)=O.Cl | Cmax [28]: 18.2 ng/mL; AUC(0-t) at 24 h [29]: 215 ng·h/mL; half-life [30]: 4.8 h; bioavailability [31]: 62%; inhibition in vivo at 0.01 mg/kg (Canis familiaris [24]): > 70%; EC50 (Canis familiaris [25]): 8.2 nM; ED50 (Canis familiaris [25]): 0.0145 mg/kg; EC50 [26]: > 1000 nM; EC50 [27]: > 10000 nM; clearance [32]: 5.1 mL/min/kg
1.2 nM | 0.1 | 0.6 nM | 8.6 ng/mL | 95.8 ng·h/mL | 6.3 h | 7.5 mL/min/kg | 45% | 36 mL/min/kg | 14.9 ng/mL | 60.9 ng·h/mL | 4.1 h | 16.9 mL/min/kg | 20% | 2.7 ng/mL | 19.3 ng·h/mL | 3.1 h | 25.9 mL/min/kg | 10% | 1.1 nM | CC(C)Nc1cc(-c2ccc(CCNC[C@H](O)c3ccccc3)cc2)ccc1C(=O)NS(C)(=O)=O.Cl.Cl | CLint scaled [33]: 3.3 mL/min/kg; CLint scaled [11]: 5.4 mL/min/kg; inhibition in vivo at 0.01 mg/kg (Canis familiaris [24]): > 70%; EC50 (Canis familiaris [25]): 7.1 nM; ED50 (Canis familiaris [25]): 0.0349 mg/kg; EC50 [26]: 260 nM; EC50 [27]: > 10000 nM
